Source: the NIST ThermoML archive (doi:10.1021/je060271a)
Numbers after ± are expanded uncertainties.

Conditions: 303.16 K, Liquid, Vibrating tube method

CCCC(=O)OCC(COC(=O)CCC)(COC(=O)CCC)COC(=O)CCC [pentaerythritol tetrabutyrate]
Conditions | mass density [kg/m3]
15938 kPa | 1052.3 ± 1.3
15972 kPa | 1052.3 ± 1.3
16014 kPa | 1052.4 ± 1.3
16048 kPa | 1052.3 ± 1.3
16090 kPa | 1052.4 ± 1.3
16125 kPa | 1052.5 ± 1.3
16167 kPa | 1052.5 ± 1.3
16209 kPa | 1052.5 ± 1.3
16244 kPa | 1052.5 ± 1.3
16286 kPa | 1052.6 ± 1.3
16323 kPa | 1052.5 ± 1.3
16366 kPa | 1052.5 ± 1.3
16409 kPa | 1052.7 ± 1.3
16446 kPa | 1052.6 ± 1.3
16489 kPa | 1052.7 ± 1.3
16526 kPa | 1052.7 ± 1.3
16571 kPa | 1052.7 ± 1.3
16616 kPa | 1052.7 ± 1.3
16654 kPa | 1052.7 ± 1.3
16700 kPa | 1052.7 ± 1.3
16739 kPa | 1052.8 ± 1.3
16786 kPa | 1052.8 ± 1.3
16833 kPa | 1052.9 ± 1.3
16872 kPa | 1053 ± 1.3
16906 kPa | 1052.9 ± 1.3
16947 kPa | 1053 ± 1.3
16988 kPa | 1052.9 ± 1.3
17023 kPa | 1053 ± 1.3
17065 kPa | 1053 ± 1.3
17100 kPa | 1053 ± 1.3
17142 kPa | 1053 ± 1.3
17185 kPa | 1052.9 ± 1.3
17221 kPa | 1053 ± 1.3
17265 kPa | 1053.2 ± 1.3
17301 kPa | 1053.1 ± 1.3
17346 kPa | 1053.2 ± 1.3
17383 kPa | 1053.1 ± 1.3
17428 kPa | 1053.2 ± 1.3
17464 kPa | 1053.2 ± 1.3
17508 kPa | 1053.2 ± 1.3
17552 kPa | 1053.1 ± 1.3
17588 kPa | 1053.3 ± 1.3
17632 kPa | 1053.3 ± 1.3
17669 kPa | 1053.4 ± 1.3
17713 kPa | 1053.5 ± 1.3
17758 kPa | 1053.5 ± 1.3
17796 kPa | 1053.4 ± 1.3
17840 kPa | 1053.4 ± 1.3
17887 kPa | 1053.5 ± 1.3
17924 kPa | 1053.4 ± 1.3
17970 kPa | 1053.5 ± 1.3
18009 kPa | 1053.6 ± 1.3
18056 kPa | 1053.6 ± 1.3
18094 kPa | 1053.5 ± 1.3
18141 kPa | 1053.6 ± 1.3
18187 kPa | 1053.6 ± 1.3
18226 kPa | 1053.6 ± 1.3
18275 kPa | 1053.6 ± 1.3
18315 kPa | 1053.9 ± 1.3
18363 kPa | 1053.8 ± 1.3
18405 kPa | 1053.7 ± 1.3
18448 kPa | 1053.9 ± 1.3
18497 kPa | 1053.9 ± 1.3
18546 kPa | 1054 ± 1.3
18588 kPa | 1053.9 ± 1.3
18638 kPa | 1054 ± 1.3
18681 kPa | 1054.1 ± 1.3
18732 kPa | 1054 ± 1.3
18784 kPa | 1054 ± 1.3
18828 kPa | 1054.1 ± 1.3
18881 kPa | 1054.2 ± 1.3
18917 kPa | 1054 ± 1.3
18955 kPa | 1054 ± 1.3
18996 kPa | 1054.2 ± 1.3
19030 kPa | 1054.2 ± 1.3
19063 kPa | 1054.2 ± 1.3
19103 kPa | 1054.2 ± 1.3
19136 kPa | 1054.2 ± 1.3
19176 kPa | 1054.3 ± 1.3
19209 kPa | 1054.3 ± 1.3
19248 kPa | 1054.3 ± 1.3
19288 kPa | 1054.4 ± 1.3
19321 kPa | 1054.3 ± 1.3
19361 kPa | 1054.4 ± 1.3
19395 kPa | 1054.3 ± 1.3
19436 kPa | 1054.4 ± 1.3
19477 kPa | 1054.5 ± 1.3
19512 kPa | 1054.4 ± 1.3
19553 kPa | 1054.5 ± 1.3
19587 kPa | 1054.5 ± 1.3
19629 kPa | 1054.5 ± 1.3
19665 kPa | 1054.4 ± 1.3
19707 kPa | 1054.6 ± 1.3
19741 kPa | 1054.6 ± 1.3
19783 kPa | 1054.5 ± 1.3
19825 kPa | 1054.7 ± 1.3
19861 kPa | 1054.7 ± 1.3
19904 kPa | 1054.6 ± 1.3
19940 kPa | 1054.8 ± 1.3
19985 kPa | 1054.6 ± 1.3
20021 kPa | 1054.8 ± 1.3
20064 kPa | 1054.8 ± 1.3
20101 kPa | 1054.9 ± 1.3
20144 kPa | 1054.8 ± 1.3
20189 kPa | 1054.9 ± 1.3
20226 kPa | 1054.9 ± 1.3
20270 kPa | 1054.9 ± 1.3
20308 kPa | 1054.8 ± 1.3
20479 kPa | 1055 ± 1.3
20525 kPa | 1054.9 ± 1.3
20562 kPa | 1055.1 ± 1.3
20609 kPa | 1055.1 ± 1.3
20648 kPa | 1055.1 ± 1.3
20695 kPa | 1055.1 ± 1.3
20735 kPa | 1055.3 ± 1.3
20783 kPa | 1055.2 ± 1.3
20823 kPa | 1055.3 ± 1.3
20871 kPa | 1055.3 ± 1.3
20911 kPa | 1055.3 ± 1.3
20958 kPa | 1055.2 ± 1.3
20997 kPa | 1055.3 ± 1.3
21046 kPa | 1055.4 ± 1.3
21087 kPa | 1055.4 ± 1.3
21317 kPa | 1055.5 ± 1.3
21366 kPa | 1055.5 ± 1.3
21458 kPa | 1055.5 ± 1.3
21510 kPa | 1055.6 ± 1.3
21552 kPa | 1055.6 ± 1.3
21603 kPa | 1055.7 ± 1.3
21646 kPa | 1055.7 ± 1.3
21698 kPa | 1055.6 ± 1.3
21749 kPa | 1055.8 ± 1.3
21792 kPa | 1055.7 ± 1.3
21845 kPa | 1055.9 ± 1.3
21889 kPa | 1055.9 ± 1.3
21942 kPa | 1055.8 ± 1.3
21986 kPa | 1055.9 ± 1.3
22040 kPa | 1055.9 ± 1.3
22093 kPa | 1056 ± 1.3
22138 kPa | 1056 ± 1.3
22194 kPa | 1056 ± 1.3
22240 kPa | 1056.1 ± 1.3
22297 kPa | 1056.1 ± 1.3
22344 kPa | 1056.2 ± 1.3
22399 kPa | 1056.2 ± 1.3
22444 kPa | 1056.1 ± 1.3
